Data from ChEMBL document CHEMBL2440073, “Antimalarial activity of compounds comprising a primary benzene sulfonamide fragment” (Bioorg Med Chem Lett, 2013).

Experiments:
[1] = tested on: NFF; test: Cytotoxicity against human NFF cells after 3 days by SRB assay; assay type: cell-based; conditions: 72 h
[2] = tested on: Plasmodium falciparum; test: Antimalarial activity against ring stage of chloroquine-resistant Plasmodium falciparum Dd2 infected in erythrocytes assessed as [3H]-hypoxanthine incorporation after 48 hrs by liquid scintillation counting analysis; assay type: functional, organism-based
[3] = Selectivity index, ratio of IC50 for human NFF cells to IC50 for Plasmodium falciparum; assay type: toxicity, cell-based; conditions: NFF cells (versus Plasmodium falciparum), read-out: Ratio IC50
[4] = tested on: Plasmodium falciparum; test: Antimalarial activity against ring stage of chloroquine-sensitive Plasmodium falciparum 3D7 infected in erythrocytes assessed as [3H]-hypoxanthine incorporation after 48 hrs by liquid scintillation counting analysis; assay type: functional, organism-based

Row | Compound | IC50 [1] [µM] | IC50 [2] [µM] | selectivity ratio [3] | IC50 [4] [µM]
1 | CC(=O)OC[C@H]1O[C@@H](SCc2nnn(-c3ccc(S(N)(=O)=O)cc3)c2I)[C@H](OC(C)=O)[C@@H](OC(C)=O)[C@@H]1OC(C)=O | 51.1 | 1.3 | ≥ 40 | 0.9
2 | CC(=O)OC[C@H]1O[C@@H](SCc2nnn(-c3ccc(S(N)(=O)=O)cc3)c2I)[C@H](OC(C)=O)[C@@H](OC(C)=O)[C@H]1OC(C)=O | > 100 | 4.1 |  | 1.4
3 | CC(=O)OC[C@H]1O[C@@H](S(=O)(=O)Cc2nnn(-c3ccc(S(N)(=O)=O)cc3)c2I)[C@H](OC(C)=O)[C@@H](OC(C)=O)[C@@H]1OC(C)=O | > 100 | 7.8 |  | 5.3
4 | CC(=O)OC[C@H]1O[C@@H](S(=O)(=O)Cc2nnn(-c3ccc(S(N)(=O)=O)cc3)c2I)[C@H](OC(C)=O)[C@@H](OC(C)=O)[C@@H]1O[C@H]1O[C@H](COC(C)=O)[C@@H](OC(C)=O)[C@H](OC(C)=O)[C@H]1OC(C)=O | > 100 | 2.4 |  | 2.3
5 | CC(=O)OC[C@H]1O[C@@H](S(=O)(=O)Cc2cn(-c3ccc(S(N)(=O)=O)cc3)nn2)[C@H](OC(C)=O)[C@@H](OC(C)=O)[C@@H]1O[C@H]1O[C@H](COC(C)=O)[C@@H](OC(C)=O)[C@H](OC(C)=O)[C@H]1OC(C)=O |  | 14.7 |  | 20.7
6 | NS(=O)(=O)c1ccc(-n2nnc(CS[C@@H]3O[C@H](CO)[C@@H](O)[C@H](O)[C@H]3O)c2I)cc1 | > 100 | 1.9 | ≥ 40 | 1
7 | NS(=O)(=O)c1ccc(-n2nnc(CS(=O)(=O)[C@@H]3O[C@H](CO)[C@@H](O)[C@H](O)[C@H]3O)c2I)cc1 |  | > 50 |  | 28.6
8 | CC(=O)OC[C@H]1O[C@@H](S(=O)(=O)Cc2nnn(-c3ccccc3)c2I)[C@H](OC(C)=O)[C@@H](OC(C)=O)[C@@H]1OC(C)=O |  | 3.4 |  | 4.7
9 | CC(=O)OC[C@H]1O[C@@H](OCc2cn(-c3ccccc3)nn2)[C@H](OC(C)=O)[C@@H](OC(C)=O)[C@@H]1OC(C)=O |  | > 50 |  | > 50
10 | O=S(=O)(Cc1nnn(-c2ccccc2)c1I)[C@@H]1O[C@H](CO)[C@@H](O)[C@H](O)[C@H]1O |  | 3.4 |  | 3.8
11 | CC(=O)OC[C@H]1O[C@@H](SCc2cn(-c3ccccc3)nn2)[C@H](OC(C)=O)[C@@H](OC(C)=O)[C@@H]1OC(C)=O |  | > 50 |  | > 50
12 | OC[C@H]1O[C@@H](SCc2cn(-c3ccccc3)nn2)[C@H](O)[C@@H](O)[C@@H]1O |  | > 50 |  | > 50
13 | CC(=O)OC[C@H]1O[C@@H](S(=O)(=O)Cc2cn(-c3ccccc3)nn2)[C@H](OC(C)=O)[C@@H](OC(C)=O)[C@@H]1OC(C)=O |  | > 50 |  | > 50
14 | O=S(=O)(Cc1cn(-c2ccccc2)nn1)[C@@H]1O[C@H](CO)[C@@H](O)[C@H](O)[C@H]1O |  | > 50 |  | > 50
15 | COC(=O)[C@H]1O[C@@H](SCc2nnn(-c3ccc(S(N)(=O)=O)cc3)c2I)[C@H](OC(C)=O)[C@@H](OC(C)=O)[C@@H]1OC(C)=O | > 100 | 6 |  | 2.1
16 | CC(=O)OC[C@H]1O[C@@H](OCc2nnn(-c3ccc(S(N)(=O)=O)cc3)c2I)[C@H](OC(C)=O)[C@@H](OC(C)=O)[C@@H]1OC(C)=O | > 100 | 2.6 |  | 2.8
17 | CC(=O)OC[C@H]1O[C@@H](SCc2nnn(-c3ccccc3)c2I)[C@H](OC(C)=O)[C@@H](OC(C)=O)[C@@H]1OC(C)=O |  | 4.8 |  | 4.6
18 | OC[C@H]1O[C@@H](SCc2nnn(-c3ccccc3)c2I)[C@H](O)[C@@H](O)[C@@H]1O |  | 4.4 |  | 4.9
19 | CC(=O)OC[C@H]1O[C@@H](OCc2nnn(-c3ccccc3)c2I)[C@H](OC(C)=O)[C@@H](OC(C)=O)[C@@H]1OC(C)=O |  | 9.4 |  | 10.6
20 | CC(=O)OC[C@H]1O[C@@H](OCc2cn(-c3ccc(S(N)(=O)=O)cc3)nn2)[C@H](OC(C)=O)[C@@H](OC(C)=O)[C@@H]1OC(C)=O |  | 11.7 |  | 9.7
21 | CC(=O)OC[C@H]1O[C@@H](S(=O)(=O)Cc2cn(-c3ccc(S(N)(=O)=O)cc3)nn2)[C@H](OC(C)=O)[C@@H](OC(C)=O)[C@@H]1OC(C)=O |  | > 50 |  | > 50
22 | NS(=O)(=O)c1ccc(-n2cc(CS[C@@H]3O[C@H](CO)[C@@H](O)[C@H](O)[C@H]3O)nn2)cc1 |  | > 50 |  | > 50
23 | NS(=O)(=O)c1ccc(-n2cc(CS(=O)(=O)[C@@H]3O[C@H](CO)[C@@H](O)[C@H](O)[C@H]3O)nn2)cc1 |  | > 50 |  | > 50
24 | CC(=O)OC[C@H]1O[C@@H](SCc2cn(-c3ccc(S(N)(=O)=O)cc3)nn2)[C@H](OC(C)=O)[C@@H](OC(C)=O)[C@@H]1OC(C)=O |  | > 25 |  | 31
25 | CCN(CC)CCCC(C)Nc1ccnc2cc(Cl)ccc12 (stereo not drawn) [CHLOROQUINE] | > 1000 |  |  | 
